Assay results from patent US20230159510A1, “NOVEL PRMT5 INHIBITORS” (AMGEN INC., priority 2020, published 2023).
Where two headings read alike, the source gives them in different places.

Legend:
HCT116 MTAP null cells = test: HCT116 proliferation assay, MTAP null cells (CellTiter-Glo, 6 days); assay type: cell-based; conditions: read-out: Protif_ HCT116-MTAP null IC50
Procedure: (§1) HCT116 MTAP null and WT cells were seeded in 96-well tissue culture plates in RPMI 1640 media + 10% fetal bovine serum. Plates were incubated overnight at 37° C. and 5% CO2. Cells were then treated with a 8- or 9-point serial dilution of compound, using a top concentration of 1 or 10 µM, 1:3 serial dilution steps and, a DMSO-only control. Cells were incubated in the presence of drug for 6 days. Effects on cell viability were measured with the CellTiter-Glo® Luminescent Cell Viability Assay (Promega) per manufacturer’s recommendation. Assay plates were read on an EnVision™ Multilabel Reader using the Ultra-Sensitive luminescence module.

HCT116 WT cells = test: HCT116 proliferation assay, WT cells (CellTiter-Glo, 6 days); assay type: cell-based; conditions: read-out: Prolif_HCT116-WT IC50
Procedure: as §1

For Cc1nc(CN(C(=O)c2ccc3nc(N)c(Br)cc3c2)[C@H](C)c2ncccn2)ccc1C#N [Example 796, (R)-2-amino-3-bromo-N-((5-cyano-6-methylpyridin-2-yl)methyl)-N-(1-(pyrimidin-2-yl)ethyl)quinoline-6-carboxamide], the IC50 (HCT116 MTAP null cells; HCT116-MTAP null, 144 h) was 0.308 µM and the IC50 (HCT116 WT cells; Homo sapiens, HCT-116, 144 h) was > 10 µM.
For “2-amino-N-((3R,4S)-3-fluorotetrahydro-2H-pyran-4-yl)-3-methyl-N-((5-(trifluoromethyl)-2-pyridinyl)methyl)-6-quinolinecarboxamide and 2-amino-N-((3S,4R)-3-fluorotetrahydro-2H-pyran-4-yl)-3-methyl-N-((5-(trifluoromethyl)-2-pyridinyl)methyl)-6-quinolinecarboxamide [Example 747]”, the IC50 (HCT116 MTAP null cells) was 0.385 µM and the IC50 (HCT116 WT cells) was 5.26 µM.
For C[C@H](c1ncccn1)N(Cc1ccc(OCC(F)(F)F)nn1)C(=O)c1cnc2nc(N)c(Br)cc2c1 [Example 793, (R)-7-amino-6-bromo-N-(1-(pyrimidin-2-yl)ethyl)-N-((6-(2,2,2-trifluoroethoxy)pyridazin-3-yl)methyl)-1,8-naphthyridine-3-carboxamide], the IC50 (HCT116 MTAP null cells; HCT116-MTAP null, 144 h) was 0.783 µM and the IC50 (HCT116 WT cells; Homo sapiens, HCT-116, 144 h) was > 10 µM.
With C[C@H](c1ncccn1)N(Cc1cc2c(cn1)OCCC2)C(=O)c1ccc2nc(N)c(Br)cc2c1 [Example 777, (R)-2-amino-3-bromo-N-((3,4-dihydro-2H-pyrano[2,3-c]pyridin-6-yl)methyl)-N-(1-(pyrimidin-2-yl)ethyl)quinoline-6-carboxamide] the IC50 (HCT116 MTAP null cells; HCT116-MTAP null, 144 h) was 0.372 µM and the IC50 (HCT116 WT cells; Homo sapiens, HCT-116, 144 h) was > 10 µM.
For Cc1cc2cc(C(=O)N(Cc3ccc(OC(F)F)nn3)C(C)c3ncccn3)ccc2nc1N (centres unmarked) [Example 742, 2-amino-N-((6-(difluoromethoxy)pyridazin-3-yl)methyl)-3-methyl-N-(1-(pyrimidin-2-yl)ethyl)quinoline-6-carboxamide], the IC50 (HCT116 MTAP null cells; HCT116-MTAP null, 144 h) was 0.04 µM and the IC50 (HCT116 WT cells; Homo sapiens, HCT-116, 144 h) was 1.17 µM.
Work on C[C@H](c1ncccn1)N(Cc1ccc(C2CC2)nn1)C(=O)c1ccc2nc(N)c(I)cc2c1 [Example 763, (R)-2-amino-N-((6-cyclopropylpyridazin-3-yl)methyl)-3-iodo-N-(1-(pyrimidin-2-yl)ethyl)quinoline-6-carboxamide] yielded an IC50 (HCT116 MTAP null cells; HCT116-MTAP null, 144 h) of 0.057 µM and an IC50 (HCT116 WT cells; Homo sapiens, HCT-116, 144 h) of 4.34 µM.
With Cc1cc2cc(C(=O)N(Cc3ccc4[nH]c(=O)[nH]c4c3)Cc3ccncc3F)ccc2nc1N [Example 588, 2-amino-N-((3-fluoropyridin-4-yl)methyl)-3-methyl-N-((2-oxo-2,3-dihydro-1H-benzo [d]imidazol-5-yl)methyl)quinoline-6-carboxamide] the IC50 (HCT116 MTAP null cells; HCT116-MTAP null, 144 h) was 0.76 µM and the IC50 (HCT116 WT cells; Homo sapiens, HCT-116, 144 h) was > 1 µM.
Compound Cc1cc2cc(C(=O)N(Cc3ccc(C4CC4)cn3)[C@H](C)c3ncccn3)ccc2nc1N [Example 821, (R)-2-amino-N-((5-cyclopropylpyridin-2-yl)methyl)-3-methyl-N-(1-(pyrimidin-2-yl)ethyl)quinoline-6-carboxamide] has an IC50 (HCT116 MTAP null cells; HCT116-MTAP null, 144 h) of 0.019 µM and an IC50 (HCT116 WT cells; Homo sapiens, HCT-116, 144 h) of 0.371 µM.
Work on Cc1cc2cc(C(=O)N(Cc3ccc(C(F)(F)F)cn3)[C@@H]3CC(F)(F)C[C@H]3O)ccc2nc1N (single isomer, unassigned) [Example 780] yielded an IC50 (HCT116 MTAP null cells; HCT116-MTAP null, 144 h) of 0.144 µM and an IC50 (HCT116 WT cells; Homo sapiens, HCT-116, 144 h) of 1.8 µM.
CC[C@H](c1ncccn1)N(Cc1ccc(C(F)(F)F)cn1)C(=O)c1cnc2nc(N)c(I)cc2c1 (single isomer, unassigned) [Example 788] showed an IC50 (HCT116 MTAP null cells; HCT116-MTAP null, 144 h) of 0.064 µM and an IC50 (HCT116 WT cells; Homo sapiens, HCT-116, 144 h) of 1.59 µM.
COc1ccc(CN(C(=O)c2cnc3nc(N)c(Br)cc3c2)[C@H](C)c2ncccc2F)nn1 [Example 735, 7-amino-6-bromo-N-((1R)-1-(3-fluoro-2-pyridinyl)ethyl)-N-((6-methoxy-3-pyridazinyl)methyl)-1,8-naphthyridine-3-carboxamide] was tested, and the IC50 (HCT116 MTAP null cells; HCT116-MTAP null, 144 h) was 0.22 µM and the IC50 (HCT116 WT cells; Homo sapiens, HCT-116, 144 h) was > 10 µM.
CC1CCCC1N(Cc1ccc(C(F)(F)F)cn1)C(=O)c1ccc2nc(N)c(Br)cc2c1 (centres unmarked) [Example 831, 2-amino-3-bromo-N-(2-methylcyclopentyl)-N-((5-(trifluoromethyl)pyridin-2-yl)methyl)quinoline-6-carboxamide] was tested, and the IC50 (HCT116 MTAP null cells; HCT116-MTAP null, 144 h) was 0.44 µM and the IC50 (HCT116 WT cells; Homo sapiens, HCT-116, 144 h) was > 10 µM.
With Cc1cc2cc(C(=O)N(Cc3ccc(N4CCOCC4)nn3)C(C)c3ncccn3)c(F)cc2nc1N (stereo in doubt) [Example 731, 2-amino-7-fluoro-3-methyl-N-((6-(4-morpholinyl)-3-pyridazinyl)methyl)-N-((1R)-1-(2-pyrimidinyl)ethyl)-6-quinolinecarboxamide] the IC50 (HCT116 MTAP null cells; HCT116-MTAP null, 144 h) was 0.05 µM and the IC50 (HCT116 WT cells; Homo sapiens, HCT-116, 144 h) was 0.693 µM.
Compound C[C@H](c1ncccn1)N(Cc1ccc(C#N)c(Cl)n1)C(=O)c1ccc2nc(N)c(I)cc2c1 [Example 769, (R)-2-amino-N-((6-chloro-5-cyanopyridin-2-yl)methyl)-3-iodo-N-(1-(pyrimidin-2-yl)ethyl)quinoline-6-carboxamide] has an IC50 (HCT116 MTAP null cells; HCT116-MTAP null, 144 h) of 0.052 µM and an IC50 (HCT116 WT cells; Homo sapiens, HCT-116, 144 h) of 5.01 µM.
In the case of Cc1cc2cc(C(=O)N(Cc3ccc(C(F)(F)F)cn3)[C@@H]3CCOC[C@H]3O)ccc2nc1N (mixture of isomers) [Example 803, 2-amino-N-((3R,4S)-3-hydroxytetrahydro-2H-pyran-4-yl)-3-methyl-N-((5-(trifluoromethyl)-2-pyridinyl)methyl)-6-quinolinecarboxamide and 2-amino-N-((3S,4R)-3-hydroxytetrahydro-2H-pyran-4-yl)-3-methyl-N-((5-(trifluoromethyl)-2-pyridinyl)methyl)-6-quinolinecarboxamide], the IC50 (HCT116 MTAP null cells; HCT116-MTAP null, 144 h) is reported as 0.412 µM and the IC50 (HCT116 WT cells; Homo sapiens, HCT-116, 144 h) is reported as > 10 µM.
N#CC[C@@H](C1CC1)N(Cc1ccc(C(F)(F)F)cn1)C(=O)c1ccc2nc(N)c(Br)cc2c1 [Example 778, (S)-2-amino-3-bromo-N-(2-cyano-1-cyclopropylethyl)-N-((5-(trifluoromethyl)pyridin-2-yl)methyl)quinoline-6-carboxamide] gave an IC50 (HCT116 MTAP null cells; HCT116-MTAP null, 144 h) of 0.072 µM and an IC50 (HCT116 WT cells; Homo sapiens, HCT-116, 144 h) of 2.05 µM.
Work on COc1ccc(CN(C(=O)c2ccc3nc(N)c(C)cc3c2)[C@H](C)c2ncn(C)n2)nn1 (single isomer, unassigned) [Example 785] yielded an IC50 (HCT116 MTAP null cells; HCT116-MTAP null, 144 h) of 0.123 µM and an IC50 (HCT116 WT cells; Homo sapiens, HCT-116, 144 h) of 2.6 µM.
Work on Cc1cc2cc(C(=O)N(Cc3ccc(C(F)(F)F)cn3)C(C)c3ncon3)ccc2nc1N (centres unmarked) [Example 795, N-(1-(1,2,4-oxadiazol-3-yl)ethyl)-2-amino-3-methyl-N-((5-(trifluoromethyl)pyridin-2-yl)methyl)quinoline-6-carboxamide] yielded an IC50 (HCT116 MTAP null cells; HCT116-MTAP null, 144 h) of 0.056 µM and an IC50 (HCT116 WT cells; Homo sapiens, HCT-116, 144 h) of 1.39 µM.
N#CC[C@@H](C1CC1)N(Cc1ccc(C#N)cn1)C(=O)c1ccc2nc(N)c(I)cc2c1 [Example 837, (S)-2-amino-N-(2-cyano-1-cyclopropylethyl)-N-((5-cyanopyridin-2-yl)methyl)-3-iodoquinoline-6-carboxamide] was tested, and the IC50 (HCT116 MTAP null cells; HCT116-MTAP null, 144 h) was 0.042 µM and the IC50 (HCT116 WT cells; Homo sapiens, HCT-116, 144 h) was 2.17 µM.
With N#Cc1ccc(CN(C(=O)c2ccc3nc(N)c(Br)cc3c2)C2CCCC2C#N)nc1 (centres unmarked) [Example 827, 2-amino-3-bromo-N-(2-cyanocyclopentyl)-N-((5-cyanopyridin-2-yl)methyl)quinoline-6-carboxamide] the IC50 (HCT116 MTAP null cells; HCT116-MTAP null, 144 h) was 0.88 µM and the IC50 (HCT116 WT cells; Homo sapiens, HCT-116, 144 h) was > 1 µM.
For [2H]C([2H])([2H])c1cc2cc(C(=O)N(Cc3ccc(C(F)(F)F)cn3)CC(C)C)ccc2nc1N [Example 398, 2-amino-N-isobutyl-3-(methyl-d3)-N-((5-(trifluoromethyl)pyridin-2-yl)methyl)quinoline-6-carboxamide], the IC50 (HCT116 MTAP null cells; 144 h) was 0.247 µM and the IC50 (HCT116 WT cells; Homo sapiens, HCT-116, 144 h) was 4.78 µM.
For Cc1cc2cc(C(=O)N(Cc3ccc(N4CCC(C(N)=O)CC4)cc3)CC(C)C3CC3)ccc2nc1N (centres unmarked) [Example 571, 2-amino-N-(4-(4-carbamoylpiperidin-1-yl)benzyl)-N-(2-cyclopropylpropyl)-3-methylquinoline-6-carboxamide], the IC50 (HCT116 MTAP null cells; HCT116-MTAP null, 144 h) was 0.202 µM and the IC50 (HCT116 WT cells; Homo sapiens, HCT-116, 144 h) was > 1 µM.
Compound C[C@H](c1ncccn1)N(Cc1cc(Cl)c(C#N)cn1)C(=O)c1ccc2nc(N)c(Br)cc2c1 [Example 745, (R)-2-amino-3-bromo-N-((4-chloro-5-cyanopyridin-2-yl)methyl)-N-(1-(pyrimidin-2-yl)ethyl)quinoline-6-carboxamide] has an IC50 (HCT116 MTAP null cells; HCT116-MTAP null, 144 h) of 0.223 µM and an IC50 (HCT116 WT cells; Homo sapiens, HCT-116, 144 h) of 1.24 µM.
With C[C@H](c1ncccn1)N(Cc1ccc(C(F)(F)F)cn1)C(=O)c1ccc2nc(N)ccc2c1 [Example 765, (R)-2-amino-N-(1-(pyrimidin-2-yl)ethyl)-N-((5-(trifluoromethyl)pyridin-2-yl)methyl)quinoline-6-carboxamide] the IC50 (HCT116 MTAP null cells; HCT116-MTAP null, 144 h) was 0.18 µM and the IC50 (HCT116 WT cells; Homo sapiens, HCT-116, 144 h) was 0.512 µM.
With Cc1cc2c(C)c(C(=O)N(Cc3ccc(C(F)(F)F)cn3)[C@H](C)c3ncccn3)ccc2nc1N [Example 770, 2-amino-3,5-dimethyl-N-((1R)-1-(2-pyrimidinyl)ethyl)-N-((5-(trifluoromethyl)-2-pyridinyl)methyl)-6-quinolinecarboxamide] the IC50 (HCT116 MTAP null cells; HCT116-MTAP null, 144 h) was 0.132 µM and the IC50 (HCT116 WT cells; Homo sapiens, HCT-116, 144 h) was 4.75 µM.
In the case of COC[C@H](C1CC1)N(Cc1ccc(N2CCOCC2)nn1)C(=O)c1ccc2nc(N)c(Br)cc2c1 [Example 732, 2-amino-3-bromo-N-((1S)-1-cyclopropyl-2-methoxyethyl)-N-((6-(4-morpholinyl)-3-pyridazinyl)methyl)-6-quinolinecarboxamide], the IC50 (HCT116 MTAP null cells; HCT116-MTAP null, 144 h) is reported as 0.231 µM and the IC50 (HCT116 WT cells; Homo sapiens, HCT-116, 144 h) is reported as > 10 µM.
Cc1cc2cc(C(=O)N(Cc3ccc(C(F)(F)F)cn3)[C@@H](C)c3ccc(F)cn3)ccc2nc1N (single isomer, unassigned) [Example 485] showed an IC50 (HCT116 MTAP null cells; HCT116-MTAP null, 144 h) of 0.734 µM and an IC50 (HCT116 WT cells; Homo sapiens, HCT-116, 144 h) of 4.68 µM.
C[C@H](c1ncccc1F)N(Cc1ccc(Br)nn1)C(=O)c1ccc2nc(N)c(Cl)cc2c1 [Example 739, 2-amino-N-((6-bromo-3-pyridazinyl)methyl)-3-chloro-N-((1R)-1-(3-fluoro-2-pyridinyl)ethyl)-6-quinolinecarboxamide] was tested, and the IC50 (HCT116 MTAP null cells; HCT116-MTAP null, 144 h) was 0.355 µM and the IC50 (HCT116 WT cells; Homo sapiens, HCT-116, 144 h) was > 10 µM.
